The test system of the experiment is HCT116. As to conditions: 72 h. The essentials:
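Each well of the 1536-well plates received 250 HCT116 cells, which attached over 5 h. Luminescence was measured with CellTiter-Glo, scaled with vehicle as 0% and positive control as -100%, and pattern-corrected. A four-parameter Hill fit yielded IC50 and maximal efficacy.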

Molecules are shown by their SMILES. Counter-ions that a name gives are not always drawn. Some results are limits rather than exact numbers.

Regarding `C=C1CC[C@H](O)C/C1=C/C=C1\CCC[C@]2(C)[C@@H]([C@H](C)CC[C@H](O)C(C)(C)O)CC[C@@H]12` [(24S)-24,25-Dihydroxyvitamin D3], the IC50 cell viability runs as follows: (ICRF193 0 nM) more than 45.8 µM; (ICRF193 200 nM) more than 45.8 µM.
As for `CC(C)CN(C[C@@H](OP(=O)(O)O)[C@H](Cc1ccccc1)NC(=O)O[C@H]1CCOC1)S(=O)(=O)c1ccc(N)cc1` [Fosamprenavir (Calcium Salt)], the IC50 cell viability (ICRF193 0 nM) was more than 45.8 µM and the IC50 cell viability (ICRF193 200 nM) was more than 45.8 µM.
As for `CCOC(=O)C1=C[C@]2(CC)CCCN3CCc4c(n1c1ccccc41)[C@@H]32` [Vinpocetine], the IC50 cell viability was more than 45.8 µM (ICRF193 0 nM) and more than 45.8 µM (ICRF193 200 nM).
For `O=P(O)(O)OC(Cn1cncn1)(Cn1cncn1)c1ccc(F)cc1F` [Fosfluconazole], the IC50 cell viability is, setting by setting: (ICRF193 0 nM) more than 45.8 µM; (ICRF193 200 nM) more than 45.8 µM.
In the case of `C=C(C)[C@H]1CN[C@H](C(=O)O)[C@H]1CC(=O)O` [Kainic acid], the IC50 cell viability was more than 45.8 µM (ICRF193 0 nM) and more than 45.8 µM (ICRF193 200 nM).
On to `CCCCCCCCCCCCCCCCCC(=O)OCCO` [2-Hydroxyethyl octadecanoate], for which the IC50 cell viability runs as follows: (ICRF193 0 nM) more than 45.8 µM; (ICRF193 200 nM) more than 45.8 µM.
Take `CC(C)CCCC(C)CCCC(C)CCCCC(C)CCCC(C)CCCC(C)C` (configuration not stated) [Squalane]: the IC50 cell viability reads like this: (ICRF193 0 nM) more than 45.8 µM; (ICRF193 200 nM) more than 45.8 µM.
As to `Fc1cccc(Br)c1NC1=NCCN1` [ROMIFIDINE], the IC50 cell viability reads like this: (ICRF193 0 nM) more than 45.8 µM; (ICRF193 200 nM) more than 45.8 µM.
In the case of `CCn1cc(C(=O)O)c(=O)c2cnc(N3CCNCC3)nc21` [Pipemidic acid], the IC50 cell viability (ICRF193 0 nM) is more than 45.8 µM and the IC50 cell viability (ICRF193 200 nM) was more than 45.8 µM.
`N[C@H](CO)C(=O)O` [D-SERINE]: the IC50 cell viability is more than 45.8 µM (ICRF193 0 nM) and more than 45.8 µM (ICRF193 200 nM).
Consider `CC(=O)O[C@H]1C[C@@H]2CC[C@@H]3[C@H](CC[C@@]4(C)[C@H]3C[C@H]([N+]3(C)CCCCC3)[C@@H]4OC(C)=O)[C@@]2(C)C[C@@H]1N1CCCCC1` [Vecuronium bromide], for which the IC50 cell viability by setting is: (ICRF193 0 nM) more than 45.8 µM; (ICRF193 200 nM) more than 45.8 µM.
As to `Cn1c(=O)cc(N2CCC[C@@H](N)C2)n(Cc2cc(F)ccc2C#N)c1=O` [Trelagliptin succinate], the IC50 cell viability (ICRF193 0 nM) was more than 45.8 µM and the IC50 cell viability (ICRF193 200 nM) is more than 45.8 µM.
For `OCc1ccccc1` [Benzyl alcohol], the IC50 cell viability by setting is: (ICRF193 0 nM) more than 45.8 µM; (ICRF193 200 nM) more than 45.8 µM.
On to `COc1ccnc(C[S+]([O-])c2nc3cc(OC(F)F)ccc3[nH]2)c1OC` (configuration not stated) [Pantoprazole], for which the IC50 cell viability by setting is: (ICRF193 0 nM) more than 45.8 µM; (ICRF193 200 nM) more than 45.8 µM.
As for `CN(C)CCOC(c1ccc(Cl)cc1)c1ccccn1` (configuration not stated) [Carbinoxamine maleate], the IC50 cell viability reads like this: (ICRF193 0 nM) more than 45.8 µM; (ICRF193 200 nM) more than 45.8 µM.
In the case of `O=C(Nc1c(Cl)cncc1Cl)c1ccc(OC(F)F)c(OCC2CC2)c1` [Roflumilast], the IC50 cell viability was more than 45.8 µM (ICRF193 0 nM) and more than 45.8 µM (ICRF193 200 nM).
`COC([CH2][Hg+])CNC(=O)c1ccccc1OCC(=O)O.[OH-]` (configuration not stated) [Mersalyl acid]: the IC50 cell viability by setting is: (ICRF193 0 nM) more than 45.8 µM; (ICRF193 200 nM) more than 45.8 µM.
Regarding `CCC(=O)O[C@H]1CC[C@H]2[C@@H]3CC[C@H]4CC(=O)[C@H](C)C[C@]4(C)[C@H]3CC[C@]12C` [Drostanolone propionate], the IC50 cell viability reads like this: (ICRF193 0 nM) more than 45.8 µM; (ICRF193 200 nM) more than 45.8 µM.
In turn, `O=C1c2c(O)cccc2Cc2cccc(O)c21` [Anthralin] returned an IC50 cell viability (ICRF193 0 nM) of more than 45.8 µM and an IC50 cell viability (ICRF193 200 nM) of more than 45.8 µM.
With `CC(C)(C)c1ccc(C(O)CCCN2CCC(C(O)(c3ccccc3)c3ccccc3)CC2)cc1` (configuration not stated) [Terfenadine], the IC50 cell viability reads like this: (ICRF193 0 nM) more than 45.8 µM; (ICRF193 200 nM) more than 45.8 µM.
Compound `Clc1ccc(Cn2c(CN3CCCC3)nc3ccccc32)cc1` [Clemizole hydrochloride] showed an IC50 cell viability (ICRF193 0 nM) of more than 45.8 µM and an IC50 cell viability (ICRF193 200 nM) of more than 45.8 µM.
On to `Cc1[nH]cnc1C[C@H]1CCc2c(C)c3ccccc3n2C1=O` [Fabesetron], for which the IC50 cell viability was more than 45.8 µM (ICRF193 0 nM) and more than 45.8 µM (ICRF193 200 nM).
As for `CCCCCC1Nc2cc(C(F)(F)F)c(S(N)(=O)=O)cc2S(=O)(=O)N1` (configuration not stated) [Penflutizide], the IC50 cell viability reads like this: (ICRF193 0 nM) more than 45.8 µM; (ICRF193 200 nM) more than 45.8 µM.
Regarding `Cc1ncc([N+](=O)[O-])n1CCO` [Metronidazole], the IC50 cell viability was more than 45.8 µM (ICRF193 0 nM) and more than 45.8 µM (ICRF193 200 nM).
`Cc1ccc(Nc2c(F)cccc2Cl)c(CC(=O)O)c1` [Lumiracoxib] returned an IC50 cell viability (ICRF193 0 nM) of more than 45.8 µM and an IC50 cell viability (ICRF193 200 nM) of more than 45.8 µM.
On to `CO[C@H]1O[C@@H]2O[C@@]3(C)CC[C@H]4[C@H](C)CC[C@@H]([C@H]1C)[C@@]24OO3` [Artemether], for which the IC50 cell viability (ICRF193 0 nM) is more than 45.8 µM and the IC50 cell viability (ICRF193 200 nM) is more than 45.8 µM.

Source of the values: the supplement of paper PMC12137928.
